Source: patent publication US8481459B2, “Chemical inhibitors of ethylene biosynthesis” (Academia Sinica, priority 2010, dated 2013)

Test system: gene expression in etiolated eto1-4 seedlings
Assay: Transcriptional profiling (ATH1 GeneChip microarray) of etiolated eto1-4 seedlings
Format: in vivo, Arabidopsis thaliana
Protocol: For chemical treatments, seeds were sown on 0.5×MS agar medium supplemented with 10 μM chemicals (AVG, compounds 9393, 9370, and 7303) or DMSO (as control). Arabidopsis seeds were stratified in the dark at 4° C. for 4 days, then germinated in the dark for 3 days at 22° C. Approximately 2,000 etiolated seedlings of the wild type or eto1-4 were used to collect tissues for preparation of total RNA in each microarray experiment with Arabidopsis ATH1 GeneChip (Affymetrix). Extraction of RNA followed an established protocol (Chang, et al. (1993) Plant Mol. Biol. Rep. 11, 113-117). Total RNA (10 μg) was used to prepare biotinylated cRNA for hybridization to ATH1 GeneChip in the experiments disclosed herein. Experiments were repeated by 2 independent biological duplicates, and candidate genes present in both experiments were selected for further analysis. The MASS method was used for data analysis and normalization by all sample medium. Candidate genes were selected by the following criteria. First, genes with 1.5-fold differential expression between the wild type and eto1-4 were selected as the master gene pool, which was then used for comparison in treatments with AVG and individual exemplary compounds. Data were presented in hierarchical clustering and Venn diagram format. Agilent GeneSpring GX and Bioconductor software were used to analyze the expression profile data. Gene Ontology descriptions were generated by GeneSpring GX and further referred to the TAR GO database. Raw data are available in the GEO database (http://www.ncbi.nlm.nih.gov/geo) with Accession no. GSE20897.
The filtered and normalized expression data set from 22810 probes on the ATH1 Genechip was used for hierarchical clustering of gene expression profiles for comparison between AVG and the exemplary invention compounds in eto1-4. It was identified that 1,446 genes show at least 1.5-fold difference in expression between the WT and eto1-4 and used them as the master gene pool for clustering analysis (FIG. 7A). […] These genes likely contribute to the etiolated phenotype of eto1-4 by responding to elevated endogenous ethylene. To determine whether the exemplary compounds have specific r overlapping functions with AVG to suppress the eto1-4 phenotype, genes that are regulated by individual exemplary invention compounds and AVG for Venn diagram analysis were clustered (FIG. 7B). More than 63% of genes (356/561 for compound 9393; 389/561 for compound 9370; 399/561 for compound 7303; FIG. 7B) with expression associated with AVG were co-regulated by the exemplary invention compounds, which indicates an overlap function in suppression of the ethylene phenotype in eto1-4. […] Next genes co-regulated by all of the exemplary invention compounds and AVG were examined by performing a clustering analysis using the co-regulated genes identified in FIG. 7B: 356 (compound 9393 vs AVG), 389 (compound 9370 vs AVG) and 399 genes (compound 7303 vs AVG). It was uncovered that 276 genes were co-regulated by all of the exemplary invention compounds and AVG (FIG. 7C and Table 2). On the basis of GO descriptions generated by Gene Spring GX and TAIR database, the 276 genes were divided into subgroups related to their biological functions (Table 2). […] In addition, stress- and pathogenesis-related genes were among the co-regulated genes, possibly because ethylene is involved in both biotic and abiotic stresses.
Genes (1446 non-redundant loci) were selected by 1.5-fold differential expression between eto1-4 and WT as the master pool for analysis. These genes were used for comparison between chemical treatments by AVG and the exemplary invention compounds. The finalized 276 genes that are co-regulated by AVG and all of the exemplary invention compounds are shown. Locus ID also present in Nemhauser et al. (Nemhauser, et al. (2006) Cell 126, 467-475).

[1] = of 1446 genes differentially expressed between WT and eto1-4, 10 μM
[2] = ratio eto1-4 treated to eto1-4 (no treatment)

CC1(C)CC(=O)c2cnc(NC3CCCC3)nc2C1 [Compound 9393]
number of genes co-regulated with AVG (of 561 genes associated with AVG, 10 μM): 356 genes | number of genes regulated (expression reverted close to WT) [1]: 629 genes | percentage of genes regulated (expression reverted close to WT) [1]: 43.5% | number of genes regulated specifically, not related to AVG treatment (of all genes regulated by the compound (629, 728, 650), 10 μM): 273 genes | Signal Fold Change AT1G03457, unknown biological function [2]: 2.24 | Signal Fold Change AT1G03660, unknown biological function [2]: 1.84 | Signal Fold Change AT1G05010 ACC oxidase [2]: 0.28 | Signal Fold Change AT1G05760 jacalin lectin protein [2]: 2.69 | Signal Fold Change AT1G06720 expressed protein [2]: 1.15 | Signal Fold Change AT1G07280, unknown biological function [2]: 0.44 | Signal Fold Change AT1G07560 leucine-rich repeat protein kinase [2]: 2.23 | Signal Fold Change AT1G08650 phosphoenolpyruvate carboxylase kinase [2]: 1.96 | Signal Fold Change AT1G08990 glycogenin glucosyltransferase [2]: 1.61 | Signal Fold Change AT1G09530 phytochrome interacting factor 3 [2]: 0.35 | Signal Fold Change AT1G10760 starch excess protein (SEX1) [2]: 0.46 | Signal Fold Change AT1G13430, response to cytokinin stimulus, sulfotransferase protein [2]: 0.38 | Signal Fold Change AT1G14540 anionic peroxidase [2]: 0.46 | Signal Fold Change AT1G15380 lactoylglutathione lyase [2]: 1.96 | Signal Fold Change AT1G17970, unknown biological function [2]: 2.17 | Signal Fold Change AT1G18880 proton-dependent oligopeptide transport (POT) protein [2]: 2.00 | Signal Fold Change AT1G20190, cell wall organization and biogenesis, expansin (EXP11) [2]: 0.43 | Signal Fold Change AT1G22740 Ras-related protein (RAB7) [2]: 2.34 | Signal Fold Change AT1G23060, unknown biological function [2]: 0.40 | Signal Fold Change AT1G26930, unknown biological function [2]: 0.50 | Signal Fold Change AT1G27380 p21-rho-binding domain-containing protein [2]: 2.10 | Signal Fold Change AT1G29520, unknown biological function [2]: 1.83 | Signal Fold Change AT1G30750, unknown biological function [2]: 2.23 | Signal Fold Change AT1G31710 copper amine oxidase [2]: 3.17 | Signal Fold Change AT1G32410 vacuolar protein sorting 55 protein [2]: 1.62 | Signal Fold Change AT1G32560 late embryogenesis abundant group 1 domain-containing protein [2]: 1.35 | Signal Fold Change AT1G33470, unknown biological function [2]: 2.32 | Signal Fold Change AT1G33790, unknown biological function [2]: 0.20 | Signal Fold Change AT1G34040, unknown biological function [2]: 1.69 | Signal Fold Change AT1G35350, unknown biological function [2]: 3.85 | Signal Fold Change AT1G35612, unknown biological function [2]: 3.38 | Signal Fold Change AT1G42470, unknown biological function [2]: 4.11 | Signal Fold Change AT1G44800, unknown biological function [2]: 1.86 | Signal Fold Change AT1G44830 AP2-containing transcription factor [2]: 0.34 | Signal Fold Change AT1G48480 leucine-rich repeat trans-membrane protein kinase [2]: 2.65 | Signal Fold Change AT1G49660 expressed protein [2]: 0.38 | Signal Fold Change AT1G50560 cytochrome P450 [2]: 1.77 | Signal Fold Change AT1G52830 auxin-responsive protein [2]: 3.44 | Signal Fold Change AT1G56010 transcription activator NAC1 [2]: 2.29 | Signal Fold Change AT1G56020, unknown biological function [2]: 0.60 | Signal Fold Change AT1G58070, unknown biological function [2]: 2.13 | Signal Fold Change AT1G59590, unknown biological function [2]: 2.57 | Signal Fold Change AT1G59740 proton-dependent oligopeptide transport (POT) protein [2]: 0.46 | Signal Fold Change AT1G62290 aspartyl protease protein [2]: 0.32 | Signal Fold Change AT1G62510 lipid transfer protein [2]: 1.63 | Signal Fold Change AT1G62620, unknown biological function [2]: 2.65 | Signal Fold Change AT1G64200 V-ATPase E subunit [2]: 2.10 | Signal Fold Change AT1G65510, unknown biological function [2]: 2.13 | Signal Fold Change AT1G65920, unknown biological function [2]: 0.37 | Signal Fold Change AT1G66230 myb transcription factor (MYB20) [2]: 3.04 | Signal Fold Change AT1G67030 zinc finger (C2H2 type) protein [2]: 6.01 | Signal Fold Change AT1G68230, unknown biological function [2]: 2.42 | Signal Fold Change AT1G68520 zinc finger (B-box type) protein [2]: 2.45 | Signal Fold Change AT1G69570 Dof-type zinc finger-containing protein [2]: 3.88 | Signal Fold Change AT1G70210 cyclin delta-1 [2]: 3.05 | Signal Fold Change AT1G70850 Bet v I allergen protein [2]: 7.24 | Signal Fold Change AT1G70890 major latex protein [2]: 5.37 | Signal Fold Change AT1G71030 myb transcription factor (MYB2) [2]: 4.86 | Signal Fold Change AT1G71740, unknown biological function [2]: 2.19 | Signal Fold Change AT1G72230 plastocyanin like protein [2]: 2.45 | Signal Fold Change AT1G73220 sugar transporter protein [2]: 2.95 | Signal Fold Change AT1G73300 serine carboxypeptidase S10 protein [2]: 1.94 | Signal Fold Change AT1G73310 serine carboxypeptidase S10 protein [2]: 2.66 | Signal Fold Change AT1G73330 protease inhibitor [2]: 2.84 | Signal Fold Change AT1G73590 auxin efflux carrier protein [2]: 2.02 | Signal Fold Change AT1G73640, small GTPase mediated signal transduction, Ras-related GTP-binding protein [2]: 1.94 | Signal Fold Change AT1G73830 bHLH protein [2]: 0.28 | Signal Fold Change AT1G75500, unknown biological function [2]: 3.12 | Signal Fold Change AT1G76220, unknown biological function [2]: 3.40 | Signal Fold Change AT1G76500, photomorphogenesis, DNA-binding protein [2]: 0.39 | Signal Fold Change AT1G76540 cell division control protein [2]: 2.16 | Signal Fold Change AT1G76790, unknown biological function [2]: 2.90 | Signal Fold Change AT1G78240 dehydration-responsive protein [2]: 0.49 | Signal Fold Change AT1G80380 phosphoribulokinase [2]: 2.17 | Signal Fold Change AT2G01910, microtubule nucleation, microtubule associated protein (MAP65/ASE1) protein [2]: 2.21 | Signal Fold Change AT2G02820 myb transcription factor (MYB88) [2]: 3.34 | Signal Fold Change AT2G02850 plantacyanin [2]: 0.27 | Signal Fold Change AT2G16580 auxin-responsive protein [2]: 2.33 | Signal Fold Change AT2G16990, unknown biological function [2]: 2.49 | Signal Fold Change AT2G19590 ACC oxidase [2]: 0.29 | Signal Fold Change AT2G19970, unknown biological function [2]: 2.19 | Signal Fold Change AT2G20080, unknown biological function [2]: 4.77 | Signal Fold Change AT2G20670, unknown biological function [2]: 2.36 | Signal Fold Change AT2G21820, unknown biological function [2]: 1.08 | Signal Fold Change AT2G21880 Ras-related GTP-binding protein [2]: 3.83 | Signal Fold Change AT2G22860 phytosulfokines 2 (PSK2) [2]: 2.20 | Signal Fold Change AT2G24150 expressed protein (response to hormone stimulus) [2]: 2.23 | Signal Fold Change AT2G25900 zinc finger (CCCH-type) protein [2]: 1.27 | Signal Fold Change AT2G26070 expressed protein (response to ethylene stimulus) [2]: 0.32 | Signal Fold Change AT2G26440 pectinesterase protein [2]: 0.36 | Signal Fold Change AT2G26740 epoxide hydrolase [2]: 0.29 | Signal Fold Change AT2G27140 heat shock protein [2]: 2.32 | Signal Fold Change AT2G27370, unknown biological function [2]: 1.90 | Signal Fold Change AT2G28305, unknown biological function [2]: 2.70 | Signal Fold Change AT2G28410, unknown biological function [2]: 2.86 | Signal Fold Change AT2G29340 short-chain dehydrogenase [2]: 0.47 | Signal Fold Change AT2G29440, toxin catabolic process, glutathione S-transferase [2]: 0.31 | Signal Fold Change AT2G30360 CBL-interacting protein kinase 11 (CIPK11) [2]: 1.81 | Signal Fold Change AT2G33380 calcium-binding RD20 protein [2]: 0.26 | Signal Fold Change AT2G33990, unknown biological function [2]: 2.38 | Signal Fold Change AT2G34300, unknown biological function [2]: 0.40 | Signal Fold Change AT2G34500 cytochrome P450 [2]: 3.82 | Signal Fold Change AT2G34510, unknown biological function [2]: 2.66 | Signal Fold Change AT2G34700, unknown biological function [2]: 1.10 | Signal Fold Change AT2G35300 late embryogenesis abundant group 1 domain-containing protein [2]: 1.93 | Signal Fold Change AT2G35710 glycogenin glucosyltransferase [2]: 2.39 | Signal Fold Change AT2G36350 protein kinase [2]: 0.54 | Signal Fold Change AT2G36410, unknown biological function [2]: 2.46 | Signal Fold Change AT2G37130 peroxidase 21 [2]: 1.93 | Signal Fold Change AT2G38760, unknown biological function [2]: 2.89 | Signal Fold Change AT2G38790, unknown biological function [2]: 1.78 | Signal Fold Change AT2G39010 aquaporin [2]: 1.84 | Signal Fold Change AT2G39310, unknown biological function [2]: 1.97 | Signal Fold Change AT2G39980, unknown biological function [2]: 0.14 | Signal Fold Change AT2G40420 amino acid transporter [2]: 1.87 | Signal Fold Change AT2G41090, unknown biological function [2]: 0.26 | Signal Fold Change AT2G41230, unknown biological function [2]: 0.08 | Signal Fold Change AT2G42320, unknown biological function [2]: 0.55 | Signal Fold Change AT2G43050 pectinesterase protein [2]: 2.06 | Signal Fold Change AT2G43535 trypsin inhibitor [2]: 4.42 | Signal Fold Change AT2G44110 seven transmembrane MLO protein [2]: 0.45 | Signal Fold Change AT2G44130 kelch repeat containing F-box protein [2]: 3.36 | Signal Fold Change AT2G47510 fumarate hydratase [2]: 0.53 | Signal Fold Change AT2G47550 pectinesterase protein [2]: 0.39 | Signal Fold Change AT2G48030, unknown biological function [2]: 2.18 | Signal Fold Change AT3G04010 glycosyl hydrolase [2]: 2.09 | Signal Fold Change AT3G05990, signal transduction, phosphodiesterase leucine-rich repeat protein [2]: 2.05 | Signal Fold Change AT3G09020, unknown biological function [2]: 2.36 | Signal Fold Change AT3G09780 protein kinase [2]: 0.55 | Signal Fold Change AT3G10080, unknown biological function [2]: 2.22 | Signal Fold Change AT3G10340 phenylalanine ammonia-lyase [2]: 2.17 | Signal Fold Change AT3G11550, unknown biological function [2]: 2.20 | Signal Fold Change AT3G12030, DNA repair, expressed protein [2]: 1.73 | Signal Fold Change AT3G12500 basic endocexemplary inase [2]: 1.85 | Signal Fold Change AT3G13980, unknown biological function [2]: 6.83 | Signal Fold Change AT3G14370 protein kinase [2]: 0.30
